How the values were obtained:
[1] = Chemical stability in aqueous solution (UHPLC); format: physicochemical; conditions: aqueous solution pH 6.8, 21 °C, 50 μg ml^−1, monitored at 24 h intervals up to 3 weeks
Experimental: Aqueous solutions of MPs (50 μg ml^−1; pH 6.8) were incubated at 21 °C in amber HPLC vials (adapted from [de Saint Germain et al., 2016]). For sample preparation, 50 μl of an acetone solution (1 mg ml^−1) was diluted to the final concentration with methanol (425 μl), water (500 μl) and 25 μl of 1-indanol (1.0 mg ml^−1 solution in acetone) as internal standard. […] Compounds eluted from the column were detected with a diode array detector. The relative quantity of remaining (non-degraded) product was determined by comparison with the internal standard. Stability was monitored at 24 h intervals up to 3 weeks.

Arabidopsis seedlings = experiment: Arabidopsis primary root length; format: in vivo; conditions: 1.0 μM
Experimental: Sterilized Arabidopsis seeds were sown on half-strength MS (with 0.5% sucrose+1% agar, 0.5 g l^−1 MES, pH 5.7) plates supplemented with GR24 or MPs (at 1.0 μM). Plates were stored at 4 °C in darkness for 3 d and then vertically grown at 22 °C in a Percival incubator under long day condition (16 h at 22 °C/8 h at 16 °C day/night, 60% relative humidity, 60–70 μmol m^−2 s^−1 white light) for 8 d. For determining the effect on lateral root density and primary root length, at least 30 seedlings were measured using ImageJ software after scanning roots.

OsD14 = molecular target: T1, OsD14 (Oryza sativa subsp. japonica, UniProt Q10QA5); experiment: In vitro hydrolysis assay, OsD14; format: biochemical, rice; conditions: 10 µM substrate, 50 µg ml^−1 protein, 37 °C, HPLC
T1 construct: made in house; host or cells: E. coli BL21 (DE3)
T1 sequence (Q10QA5 1-318): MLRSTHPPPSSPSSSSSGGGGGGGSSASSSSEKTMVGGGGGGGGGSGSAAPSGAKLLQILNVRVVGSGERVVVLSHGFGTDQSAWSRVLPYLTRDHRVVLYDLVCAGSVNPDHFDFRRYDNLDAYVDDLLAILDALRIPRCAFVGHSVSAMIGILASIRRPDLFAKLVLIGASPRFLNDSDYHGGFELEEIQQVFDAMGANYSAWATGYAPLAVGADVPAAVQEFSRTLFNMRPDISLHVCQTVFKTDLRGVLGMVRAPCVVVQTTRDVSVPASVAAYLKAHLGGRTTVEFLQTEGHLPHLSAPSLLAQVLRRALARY
Excerpt: Striga hermonthica ShHTL7 cDNA was used, GenBank accession KR013127, kindly provided by Tsuyoshi Ota, The University of Tokyo, Japan. Arabidopsis D14 (AtD14) cDNA, GenBank accession AY097402, was synthesized and cloned into pUC57 (GenScript). ShHTL7 and OsD14 cDNAs were amplified by RT-PCR using the primers shown in Supplementary Table S2, digested with BamHI and XhoI, and ligated into BamHI/XhoI-digested pGEX-6P-1 expression vector (GE Healthcare). Integrity of plasmids was confirmed by sequencing (KAUST Bioscience Core Lab). The plasmids were then transformed into E. coli BL21 (DE3) cells. The cells were grown in LB broth containing ampicillin ([…]), incubated at 37 °C until OD600 of 0.6 and induced with 0.1 mM isopropyl-β-D-thiogalactopyranoside at 16 °C for 16 h. Harvested cells were resuspended in lysis buffer: 50 mM Tris–HCl (pH 8.0), 200 mM NaCl, 0.5% Tween-20 and 2 mM dithiothreitol (DTT). After sonication on ice for 10 min, the lysate was centrifuged at 75 000 g for 30 min at 4 °C. Supernatant was allowed to bind to glutathione–sepharose beads (GE Healthcare) for 2 h at 4 °C, washed 3 times with buffer (50 mM Tris-HCl (pH 8.0), 200 mM NaCl, 2 mM DTT), and eluted by cleaving the GST moiety with PreScission™ Protease (GE Healthcare) at 4 °C overnight. Eluted protein was further purified by gel filtration using a HiLoad 16/60 Superdex200 prep grade column (GE Healthcare) on an AKTA prime system (GE Healthcare) in gel filtration buffer (10 mM HEPES pH 7.5, 50 mM KCl and 2 mM DTT). Protein eluted as a sharp single peak and purity was judged by 4–15% SDS-PAGE (Bio-Rad). Purified protein was concentrated using an Amicon 10K filter unit (Merck Millipore) and stored at −80 °C until use. A similar expression and purification protocol was followed for OsD14 protein, except that OsD14 was eluted from glutathione resins using 0.2 mM reduced glutathione (Sigma-Aldrich) without cutting the GST tag.
The hydrolysis of GR24 and MPs by ShHTL7/OsD14 was performed in a total volume of 0.5 ml of phosphate-buffered saline containing 10 µM of substrate. Purified ShHTL7/OsD14 was added at a concentration of 50 µg ml^−1 and incubated for the indicated time at 37 °C. After adding 1-indanol (10 µl of a 2.5 mg ml^−1 solution in methanol), as internal standard, solutions were filtered and transferred to HPLC vials. Hydrolysis of substrates was monitored by HPLC analysis using a Zorbax Eclipse Plus C18 column (3.5 µm, 2.1 × 150 mm), eluted by a gradient from 10% to 90% acetonitrile in water within 15 min, keeping the final condition for 4 min. […] Eluted compounds were detected using a diode array detector. Amounts of remaining substrates were determined by calculating corresponding peaks, in comparison with an internal standard.

Row | SMILES | stability in comparison with GR24 [1] | increase in primary root length (Arabidopsis seedlings) | hydrolysis rate by OsD14 (rank order) (OsD14)
1 | COC(=O)/C(=C/OC1C=C(C)C(=O)O1)c1ccccc1 (stereo not shown) [MP3, (E)-methyl 3-(4-methyl-5-oxo-2,5-dihydrofuran-2-yloxy)-2-phenylacrylate] | more stable than GR24 | weaker activity than GR24 and MP8 | highest hydrolysis rate with MP1, followed by MP7, GR24, and finally MP3
2 | CC1=CC(OC=C2C(=O)OC3c4ccccc4CC23)OC1=O (stereo not shown) [GR24, reference compound] | – | – | highest hydrolysis rate with MP1, followed by MP7, GR24, and finally MP3
3 | COC(=O)/C(=C/OC1C=C(C)C(=O)O1)c1ccc([N+](=O)[O-])cc1 (stereo not shown) [MP1, (E)-methyl 3-(4-methyl-5-oxo-2,5-dihydrofuran-2-yloxy)-2-(4-nitrophenyl)acrylate] | slightly less stable than GR24 | most active compound | highest hydrolysis rate with MP1, followed by MP7, GR24, and finally MP3
4 | COC(=O)/C(=C/OC1C=C(C)C(=O)O1)c1ccc(Cl)cc1 (stereo not shown) [MP7] | more stable than GR24 | more efficient than GR24 | highest hydrolysis rate with MP1, followed by MP7, GR24, and finally MP3
